In patent publication US20090069317A1, “Insecticidal Methods Using 3-Amino-1,2-Benzisothiazole Derivatives” (BASF SE, priority 2005, published 2009):

How the values were obtained:
[1] = system: Cotton Aphid (Aphis gossypii); experiment: Cotton aphid (Aphis gossypii) cotyledon dip test, mortality; format: in vivo; settings: 120 h, cotton cotyledons dipped, mortality counts after 5 days, read-out: mortality in comparison with untreated controls
Description: B.1 Cotton Aphid (Aphis gossypii)
(§1) The active compounds were formulated in 50:50 acetone:water and 100 ppm Kinetic® surfactant.
Cotton plants at the cotyledon stage (one plant per pot) were infested by placing a heavily infested leaf from the main colony on top of each cotyledon. The aphids were allowed to transfer to the host plant overnight, and the leaf used to transfer the aphids was removed. The cotyledons were dipped in the test solution and allowed to dry. After 5 days, mortality counts were made.

[2] = system: Green Peach Aphid (Myzus Persicae); experiment: Green peach aphid (Myzus persicae) pepper leaf dip test, mortality; format: in vivo; settings: foliar, 120 h, pepper plant leaves dipped, aphid mortality after 5 days, read-out: mortality in comparison with untreated controls
Description: B.2 Green Peach Aphid (Myzus Persicae)
as §1
Pepper plants in the 2nd leaf-pair stage (variety ‘California Wonder’) were infested with approximately 40 laboratory-reared aphids by placing infested leaf sections on top of the test plants. The leaf sections were removed after 24 hr. The leaves of the intact plants were dipped into gradient solutions of the test compound and allowed to dry. Test plants were maintained under fluorescent light (24 hour photoperiod) at about 25° C. and 20-40% relative humidity. Aphid mortality on the treated plants, relative to mortality on check plants, was determined after 5 days.

SMILES	mortality at 300 ppm [1]	mortality at 300 ppm [2]
O=S1(=O)N=C(N2CCCC2)c2c(Cl)cccc21 [Compound 1]	> 86%	–
CN(C)C1=NS(=O)(=O)c2cccc(Cl)c21 [Compound 2]	> 86%	> 86%
C=CCN(CC=C)C1=NS(=O)(=O)c2cccc(Cl)c21 [Compound 10]	> 86%	–
CCN(CC(F)(F)F)C1=NS(=O)(=O)c2cccc(Cl)c21 [Compound 13]	> 86%	–
C#CC(C)N(C1=NS(=O)(=O)c2cccc(Cl)c21)C(C)C (centres unmarked) [Compound 14]	> 86%	–
COC(OC)C(C)N(C)C1=NS(=O)(=O)c2cccc(Cl)c21 (centres unmarked) [Compound 16]	> 86%	–
COC(CN(C)C1=NS(=O)(=O)c2cccc(Cl)c21)OC [Compound 17]	> 86%	–
COC(C)CN(C)C1=NS(=O)(=O)c2cccc(Cl)c21 (centres unmarked) [Compound 18]	> 86%	–
CCCN(C)C1=NS(=O)(=O)c2cccc(Cl)c21 [Compound 19]	> 86%	> 86%
C=CCN(C)C1=NS(=O)(=O)c2cccc(Cl)c21 [Compound 20]	> 86%	–
C#CCN(C)C1=NS(=O)(=O)c2cccc(Cl)c21 [Compound 21]	> 86%	–
CC(C)CN(C)C1=NS(=O)(=O)c2cccc(Cl)c21 [Compound 22, (4-Chloro-1,1-dioxo-1H-1λ^6-benzo[d]isothiazol-3-yl)-isobutyl-methyl-amine]	> 86%	–
COc1cccc2c1C(N1CCOCC1)=NS2(=O)=O [Compound 26]	> 86%	–
CCN(CC)C1=NS(=O)(=O)c2cccc(OC)c21 [Compound 27]	> 86%	> 86%
CCN(C1=NS(=O)(=O)c2cccc(OC)c21)C(C)C [Compound 28]	> 86%	> 86%
C#CCN(C1=NS(=O)(=O)c2cccc(OC)c21)C(C)C [Compound 29]	> 86%	–
CCN(C)C1=NS(=O)(=O)c2cccc(OC)c21 [Compound 30, Ethyl-(4-methoxy-1,1-dioxo-1H-1λ^6-benzo[d]isothiazol-3-yl)-methyl-amine]	> 86%	> 86%
CCN(CC)C1=NS(=O)(=O)c2cccc(OC(F)F)c21 [Compound 31, (4-Difluoromethoxy-1,1-dioxo-1H-1λ^6-benzo[d]isothiazol-3-yl)-diethyl-amine]	> 86%	> 86%
CN(C)C1=NS(=O)(=O)c2cccc(OC(F)F)c21 [Compound 32]	> 86%	> 86%
CCN(C1=NS(=O)(=O)c2cccc(OC(F)F)c21)C(C)C [Compound 33]	> 86%	> 86%
CCN(C)C1=NS(=O)(=O)c2cccc(OC(F)F)c21 [Compound 34]	> 86%	> 86%
CC(C)N(C1=NS(=O)(=O)c2cccc(OC(F)F)c21)C1CC1 [Compound 35]	> 86%	–
CN(CC#N)C1=NS(=O)(=O)c2cccc(OC(F)F)c21 [Compound 37]	> 86%	> 86%
CCCN(C)C1=NS(=O)(=O)c2cccc(OC(F)F)c21 [Compound 38]	> 86%	> 86%
C#CCN(C)C1=NS(=O)(=O)c2cccc(OC(F)F)c21 [Compound 39]	> 86%	> 86%
C=CCN(C)C1=NS(=O)(=O)c2cccc(OC(F)F)c21 [Compound 40]	> 86%	> 86%

SMILES	mortality at 300 ppm [1]	mortality at 300 ppm [2]
CC(C)N(C)C1=NS(=O)(=O)c2cccc(OC(F)F)c21 [Compound 41]	> 86%	> 86%
CC(C)CN(C)C1=NS(=O)(=O)c2cccc(OC(F)F)c21 [Compound 42]	> 86%	> 86%
CC(C)CN(C)c1nsc2cccc(Cl)c12 [Compound 44]	> 86%	–
C=CCN(C)c1nsc2cccc(Cl)c12 [Compound 45]	> 86%	–
COC(CN(C)c1nsc2cccc(Cl)c12)OC [Compound 46]	> 86%	–
COc1c(Br)ccc2snc(N(C)C)c12 [Compound 48, (5-Bromo-4-methoxy-benzo[d]isothiazol-3-yl)-dimethyl-amine]	> 86%	> 86%
CCN(C)c1nsc2cccc(Cl)c12 [Compound 51]	> 86%	> 86%
CC(C)N(C)C1=NS(=O)(=O)c2cccc(Cl)c21 [Compound 52]	> 86%	–
CN(CC(F)(F)F)C1=NS(=O)(=O)c2cccc(OC(F)F)c21 [Compound 53]	> 86%	> 86%
COc1cccc2c1C(N(C)C)=NS2(=O)=O [Compound 54]	> 86%	–
COc1cccc2c1C(N(C(C)C)C1CC1)=NS2(=O)=O [Compound 55]	> 86%	–
CN(CC(F)(F)F)C1=NS(=O)(=O)c2cccc(Cl)c21 [Compound 56]	> 86%	–
COC(C)CN(C)c1nsc2cccc(Cl)c12 (centres unmarked) [Compound 57]	> 86%	> 86%
CCN(CC)c1nsc2cccc(Cl)c12 [Compound 58]	> 86%	> 86%
CCN(C)c1nsc2ccc(I)c(Cl)c12 [Compound 60]	> 86%	–
CCN(CC)c1nsc2ccc(I)c(Cl)c12 [Compound 61]	> 86%	–
CCCN(CC1CC1)C1=NS(=O)(=O)c2cccc(F)c21 [Compound 62]	> 86%	> 86%
CN(C)C1=NS(=O)(=O)c2cccc(F)c21 [Compound 63]	> 86%	–
CCN(C)C1=NS(=O)(=O)c2cccc(F)c21 [Compound 64]	> 86%	> 86%
CCN(CC)C1=NS(=O)(=O)c2cccc(F)c21 [Compound 65]	> 86%	–
C#CCN(C)C1=NS(=O)(=O)c2cccc(F)c21 [Compound 66]	> 86%	–
CCCN(CCC)C1=NS(=O)(=O)c2cccc(F)c21 [Compound 67]	> 86%	–
CCCN(C)C1=NS(=O)(=O)c2cccc(F)c21 [Compound 68]	> 86%	–
C=CCN(C)C1=NS(=O)(=O)c2cccc(F)c21 [Compound 69]	> 86%	–
CC(C)CN(C)C1=NS(=O)(=O)c2cccc(F)c21 [Compound 70]	> 86%	–
CC(C)N(C1=NS(=O)(=O)c2cccc(F)c21)C1CC1 [Compound 71]	> 86%	–

SMILES	mortality at 300 ppm [1]	mortality at 300 ppm [2]
C#CCN(C1=NS(=O)(=O)c2cccc(F)c21)C(C)C [Compound 72]	> 86%	–
CC(C)N(C)C1=NS(=O)(=O)c2cccc(F)c21 [Compound 73]	> 86%	> 86%
CCN(CC)c1n[s+]([O-])c2cccc(Cl)c12 (centres unmarked) [Compound 74]	> 86%	> 86%
CCN(CC)c1nsc2cccc(OC)c12 [Compound 76]	> 86%	> 86%
CC(C)CN(C)c1n[s+]([O-])c2cccc(Cl)c12 (centres unmarked) [Compound 77]	> 86%	–
CN(C)c1n[s+]([O-])c2cccc(Cl)c12 (centres unmarked) [Compound 78]	> 86%	> 86%
CCN(C)c1nsc2cccc(F)c12 [Compound 79]	> 86%	–
CCN(C)c1nsc2cccc(OC(F)F)c12 [Compound 80]	> 86%	> 86%
CCN(C)c1nsc2cccc(OC)c12 [Compound 81]	> 86%	> 86%
COc1cccc2snc(N(C)C(C)C)c12 [Compound 82]	> 86%	> 86%
COc1cccc2snc(N(C)CC(C)C)c12 [Compound 83]	> 86%	> 86%
COc1cccc2c1c(N(C)CC(C)C)n[s+]2[O-] (centres unmarked) [Compound 84]	> 86%	–
CCN(C)c1n[s+]([O-])c2cccc(OC)c12 (centres unmarked) [Compound 85]	> 86%	> 86%
CC(C)N(C)c1nsc2cccc(Cl)c12 [Compound 86]	> 86%	> 86%
CCCN(C)c1nsc2cccc(Cl)c12 [Compound 87]	> 86%	> 86%
COc1ccc(F)c2c1C(N(C)C)=NS2(=O)=O [Compound 90]	> 86%	–
CCC(C)N(O)C1=NS(=O)(=O)c2cccc(Cl)c21 (centres unmarked) [Compound 99]	> 86%	–
CON(C)C1=NS(=O)(=O)c2cccc(F)c21 [Compound 100]	> 86%	–
CC(C)ON(C1=NS(=O)(=O)c2cccc(Cl)c21)C(C)C [Compound 101]	> 86%	–
CC(C)ON(C)C1=NS(=O)(=O)c2cccc(Cl)c21 [Compound 102]	> 86%	–
C#CCON(C)C1=NS(=O)(=O)c2cccc(Cl)c21 [Compound 103]	> 86%	–
O=S1(=O)N=C(N(O)Cc2ccccc2)c2c(Cl)cccc21 [Compound 104]	> 86%	–
C#CCON(C1=NS(=O)(=O)c2cccc(Cl)c21)C(C)C [Compound 105]	> 86%	–
CCON(CC)C1=NS(=O)(=O)c2cccc(Cl)c21 [Compound 106]	> 86%	–
C#CCN(OCC)C1=NS(=O)(=O)c2cccc(Cl)c21 [Compound 107]	> 86%	–
